In patent US20050215551A1, “1-[2H-1-benzopyran-2-one-8-yl]- piperazine derivatives for the treatment of movement disorders” (SOLVAY PHARMACEUTICALS B.V., priority 2004, published 2005):

Legend:
[1] = molecular target: Neuropeptide Y2 (Homo sapiens, UniProt P49146); assay: Receptor binding Neuropeptide Y2; settings: radioligand [125I]-PYY, read-out: Ki(nM) Compound 1
Procedure: (§1) Receptor binding data were obtained by CEREP (128, rue Danton, 92500 Rueil-Malmaison, France) or at Solvay Pharmaceuticals B.V., using well documented standard procedures. Affinity for 5-HT1A receptors for instance, was determined by testing the ability of the compounds of the invention to displace [^3H]-2-(di-n-propylamino)-8-hydroxytetralin ([^3H]-8-OH-DPAT) from its specific binding sites in rat frontal cortex homogenates. This test is based on the method described by Gozlan et al. (Nature, 305, (1983), pages 140-142).
(§2) The binding data collected in the table below were either obtained by CEREP (128, rue Danton, 92500 Rueil-Malmaison, France) or at Solvay Pharmaceuticals B.V., using well documented standard procedures.

[2] = system: GDNF; assay: Induction of growth factors: GDNF RNA in brain areas by quantitative PCR; assay type: in vivo; settings: 3 mg/kg p.o. once daily, 3 weeks
Procedure: Compounds of the invention (3 mg/kg, p.o.) or vehicle are administered once daily during a period of 3 weeks (n=8 animals per treatment group). 24 hours after the last dose the animals are sacrificed (using CO2/O2 anesthesia), the brains are removed and the dissected. RNA is extracted from the individual brain samples and induction of the growth factors BDNF and GDNF is determined by quantitative PCR. Total RNA is isolated with the Trizol method (Invitrogen) from the brain pieces. cDNA is made starting with 2 μg of total RNA (pretreated for 30 min with DNAse (Ambion) in first strand buffer) using the reverse transcriptase Superscript II (Invitrogen). Quantification of […] by real time PCR makes use of the observation that the early cycles of PCR are characterized by an exponential increase in target amplification. The accumulation of PCR product is measured using Sybergreen II. Primers are designed using the software package Primer Express (Applied Biosystems). Expression levels of the housekeeping genes ornithine decarboxylase (ODC_ex8) and alpha tubulin (TUBA) used for normalization and as control for good cDNA synthesis.

[3] = molecular target: Dopamine-D5 (Homo sapiens, UniProt P21918); assay: Receptor binding Dopamine-D5; settings: radioligand [3H]-SCH 23390, read-out: Ki(nM) Compound 1
Chain of Dopamine-D5 (P21918 whole entry): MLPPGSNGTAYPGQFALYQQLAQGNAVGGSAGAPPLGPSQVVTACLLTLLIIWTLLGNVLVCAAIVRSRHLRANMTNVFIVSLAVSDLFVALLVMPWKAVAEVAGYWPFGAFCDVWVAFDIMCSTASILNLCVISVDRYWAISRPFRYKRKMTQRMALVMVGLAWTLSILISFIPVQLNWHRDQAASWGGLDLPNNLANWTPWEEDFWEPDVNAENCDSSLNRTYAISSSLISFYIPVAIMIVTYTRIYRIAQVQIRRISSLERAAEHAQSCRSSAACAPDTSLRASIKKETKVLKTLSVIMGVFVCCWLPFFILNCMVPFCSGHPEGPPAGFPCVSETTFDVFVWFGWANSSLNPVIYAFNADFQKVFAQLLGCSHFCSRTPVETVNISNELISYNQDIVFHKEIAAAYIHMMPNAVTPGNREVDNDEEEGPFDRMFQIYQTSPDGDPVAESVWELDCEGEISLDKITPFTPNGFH
Procedure: as §1, §2

Chain of Neuropeptide Y2 (P49146 whole entry): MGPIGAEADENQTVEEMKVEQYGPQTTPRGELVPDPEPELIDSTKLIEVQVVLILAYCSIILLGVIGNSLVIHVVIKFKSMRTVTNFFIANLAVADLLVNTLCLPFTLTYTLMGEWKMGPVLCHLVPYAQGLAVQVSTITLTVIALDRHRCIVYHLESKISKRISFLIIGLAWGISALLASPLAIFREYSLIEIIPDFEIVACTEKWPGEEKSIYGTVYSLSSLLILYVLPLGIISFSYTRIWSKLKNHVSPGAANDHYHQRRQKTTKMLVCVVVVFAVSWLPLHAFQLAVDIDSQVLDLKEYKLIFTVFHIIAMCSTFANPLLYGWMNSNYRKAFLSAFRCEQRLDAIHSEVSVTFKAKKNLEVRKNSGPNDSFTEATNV

For `Nc1cc2cccc(N3CCNCC3)c2oc1=O` [Compound 1, 3-amino-8-(1-piperazinyl)-2H-1-benzopyran-2-one], the Ki [1] was greater than 1000 nM, the “GDNF RNA, fold increase compared to vehicle treatment” value (from here on “GDNF RNA, fold increase”) ([2]; hippocampus) was 1.7 fold and the “GDNF RNA, fold increase” value ([2]; nucleus accumbens) was 1.5 fold. For the same compound, the “GDNF RNA, fold increase” value ([2]; prefrontal cortex) was 1.3 fold, the “GDNF RNA, fold increase” value ([2]; striatum) was 2.2 fold and the “GDNF RNA, fold increase” value ([2]; thalamus) was 2.6 fold. For the same compound, the Ki [3] was greater than 1000 nM.
